According to BindingDB's records for doi:10.1021/jm970522y (Parke-Davis Pharmaceutical Research, 1997):

These molecules were tested against T1, Dimer of Gag-Pol polyprotein [489-587] (Human immunodeficiency virus 1, UniProt P12497) (assay: Protease Inhibition Assay). Settings: pH 6.2; 37 °C.
T1 construct: 489-587
Method: For determination of IC50 values, HIV-1 protease was added to assay buffer containing inhibitor and the substrate (H-His-Lys-Ala-Arg-Val-Leu- (p-NO2) Phe-Glu-Ala-norleucine-Ser-NH2). The Leu- (p-NO2) Phe bond of the substrate was cleaved by the enzyme, and the substrate and products were separated by reversed-phase HPLC. Absorbance was measured at 220 nm, peak areas were determined, and percentage conversion to product was calculated.

Compound	IC50
Cc1cc(SC2C(=O)CC(CCc3ccccc3)(c3ccccc3)OC2=O)c(C(C)(C)C)cc1CO (stereo not drawn) [PD 178390 Analog 38]	6.6 nM
Cc1ccc(C(C)(C)C)c(SC2C(=O)CC(CCc3ccccc3)(c3ccccc3)OC2=O)c1 (stereo not drawn) [4-Hydroxy-5,6-dihydropyrone deriv. 49]	35 nM
Cc1cc(SC2C(=O)CC(CCc3ccc(N)cc3)(C3CCCCC3)OC2=O)c(C(C)(C)C)cc1CO (stereo not drawn) [PD 178390 Analog 36]	3.2 nM
Cc1ccc(C(C)(C)C)c(SC2C(=O)CC(CCc3ccccc3)(c3ccc(O)cc3)OC2=O)c1 (stereo not drawn) [3-[(2-tert-butyl-5-methylphenyl)sulfanyl]-4-hydroxy-6-(4-hydroxyphenyl)-6-(2-phenylethyl)-5,6-dihydro-2H-pyran-2-one]	40 nM
Cc1cc(SC2C(=O)CC(CCc3ccc(O)cc3)(c3ccc(O)cc3)OC2=O)c(C(C)(C)C)cc1CO (stereo not drawn) [3-{[2-tert-butyl-4-(hydroxymethyl)-5-methylphenyl]sulfanyl}-4-hydroxy-6-(4-hydroxyphenyl)-6-[2-(4-hydroxyphenyl)ethyl]-5,6-dihydro-2H-pyran-2-one]	120 nM
Cc1cc(SC2C(=O)CC(CCc3ccc(O)cc3)(C3CCCCC3)OC2=O)c(C(C)(C)C)cc1CO (stereo not drawn) [PD 178390 Analog 21]	4.1 nM
Cc1cc(SC2C(=O)CC(CCc3ccccc3)(c3ccc(OCCO)cc3)OC2=O)c(C(C)(C)C)cc1OCCO (stereo not drawn) [3-{[2-tert-butyl-4-(2-hydroxyethoxy)-5-methylphenyl]sulfanyl}-4-hydroxy-6-[4-(2-hydroxyethoxy)phenyl]-6-(2-phenylethyl)-5,6-dihydro-2H-pyran-2-one]	6.4 nM
Cc1cc(SC2C(=O)CC(CCc3ccccc3)(c3ccc(OCCO)cc3)OC2=O)c(C(C)(C)C)cc1O (stereo not drawn) [3-[(2-tert-butyl-4-hydroxy-5-methylphenyl)sulfanyl]-4-hydroxy-6-[4-(2-hydroxyethoxy)phenyl]-6-(2-phenylethyl)-5,6-dihydro-2H-pyran-2-one]	3.7 nM
Cc1ccc(C(C)(C)C)c(SC2C(=O)CC(CCc3ccc(N)cc3)(c3ccccc3)OC2=O)c1 (stereo not drawn) [6-[2-(4-aminophenyl)ethyl]-3-[(2-tert-butyl-5-methylphenyl)sulfanyl]-4-hydroxy-6-phenyl-5,6-dihydro-2H-pyran-2-one]	24 nM
Cc1cc(SC2C(=O)CC(C)(CCc3ccc(O)cc3)OC2=O)c(C(C)(C)C)cc1CO (stereo not drawn) [PD 178390 Analog 12]	4.3 nM
Cc1ccc(C(C)(C)C)c(SC2C(=O)CC(CCc3ccccc3)(c3ccc(N)cc3)OC2=O)c1 (stereo not drawn) [6-(4-aminophenyl)-3-[(2-tert-butyl-5-methylphenyl)sulfanyl]-4-hydroxy-6-(2-phenylethyl)-5,6-dihydro-2H-pyran-2-one]	32 nM
Cc1cc(SC2C(=O)CC(CCc3ccccc3)(c3ccccc3)OC2=O)c(C(C)(C)C)cc1O (stereo not drawn) [3-[(2-tert-butyl-4-hydroxy-5-methylphenyl)sulfanyl]-4-hydroxy-6-phenyl-6-(2-phenylethyl)-5,6-dihydro-2H-pyran-2-one]	33 nM
COCc1cc(C(C)(C)C)c(SC2C(=O)CC(CCc3ccccc3)(c3ccc(OCCO)cc3)OC2=O)cc1C (stereo not drawn) [3-{[2-tert-butyl-4-(methoxymethyl)-5-methylphenyl]sulfanyl}-4-hydroxy-6-[4-(2-hydroxyethoxy)phenyl]-6-(2-phenylethyl)-5,6-dihydro-2H-pyran-2-one]	4.5 nM
Cc1ccc(C(C)(C)C)c(SC2C(=O)CC(CCc3ccc(O)cc3)(c3ccccc3)OC2=O)c1 (stereo not drawn) [PD 178390 Analog 1]	11 nM
Cc1cc(SC2C(=O)CC(CCc3ccccc3)(c3ccccc3)OC2=O)c(C(C)(C)C)cc1OCCO (stereo not drawn) [PD 178390 Analog 41]	6.8 nM
Cc1cc(SC2C(=O)CC(CCc3cccc(O)c3)(c3ccccc3)OC2=O)c(C(C)(C)C)cc1CO (stereo not drawn) [3-{[2-tert-butyl-4-(hydroxymethyl)-5-methylphenyl]sulfanyl}-4-hydroxy-6-[2-(3-hydroxyphenyl)ethyl]-6-phenyl-5,6-dihydro-2H-pyran-2-one]	2.5 nM
Cc1cc(SC2C(=O)CC(CCc3ccc(O)cc3)(C(C)C)OC2=O)c(C(C)(C)C)cc1CO (stereo not drawn) [3-{[2-tert-butyl-4-(hydroxymethyl)-5-methylphenyl]sulfanyl}-4-hydroxy-6-[2-(4-hydroxyphenyl)ethyl]-6-(propan-2-yl)-5,6-dihydro-2H-pyran-2-one]	3.6 nM
COc1cc(C(C)(C)C)c(SC2C(=O)CC(CCc3ccccc3)(c3ccccc3)OC2=O)cc1C (stereo not drawn) [3-[(2-tert-butyl-4-methoxy-5-methylphenyl)sulfanyl]-4-hydroxy-6-phenyl-6-(2-phenylethyl)-5,6-dihydro-2H-pyran-2-one]	15 nM
Cc1cc(SC2C(=O)CC(CCc3ccc(N)cc3)(C(C)C)OC2=O)c(C(C)(C)C)cc1CO (stereo not drawn) [6-[2-(4-aminophenyl)ethyl]-3-{[2-tert-butyl-4-(hydroxymethyl)-5-methylphenyl]sulfanyl}-4-hydroxy-6-(propan-2-yl)-5,6-dihydro-2H-pyran-2-one]	2.7 nM
Cc1cc(SC2C(=O)CC(CCc3ccccc3)(c3ccc(OCCO)cc3)OC2=O)c(C(C)(C)C)cc1CO (stereo not drawn) [3-{[2-tert-butyl-4-(hydroxymethyl)-5-methylphenyl]sulfanyl}-4-hydroxy-6-[4-(2-hydroxyethoxy)phenyl]-6-(2-phenylethyl)-5,6-dihydro-2H-pyran-2-one]	1.4 nM
Cc1ccc(C(C)(C)C)c(SC2C(=O)CC(CCc3ccccc3)(c3ccc(OCCO)cc3)OC2=O)c1 (stereo not drawn) [3-[(2-tert-butyl-5-methylphenyl)sulfanyl]-4-hydroxy-6-[4-(2-hydroxyethoxy)phenyl]-6-(2-phenylethyl)-5,6-dihydro-2H-pyran-2-one]	12 nM
Cc1cc(SC2C(=O)CC(CCc3cccc(N)c3)(c3ccccc3)OC2=O)c(C(C)(C)C)cc1CO (stereo not drawn) [6-[2-(3-aminophenyl)ethyl]-3-{[2-tert-butyl-4-(hydroxymethyl)-5-methylphenyl]sulfanyl}-4-hydroxy-6-phenyl-5,6-dihydro-2H-pyran-2-one]	4 nM
Cc1cc(SC2C(=O)CC(CCc3ccc(N)cc3)(c3ccccc3)OC2=O)c(C(C)(C)C)cc1CO (stereo not drawn) [PD 178390 Analog 33]	3.1 nM
